Experimental data from US20090275648A1, “MACROCYCLIC GHRELIN RECEPTOR ANTAGONISTS AND INVERSE AGONISTS AND METHODS OF USING THE SAME” (priority 2005, published 2009).
pKi: −log10 of the molar value.

Molecular target: T1, human ghrelin receptor (hGHS-R1a) (Homo sapiens, UniProt Q92847)
T1 construct: purchased PerkinElmer BioSignal #RBHGHSM, lot#1887; host or cells: HEK-293 cells, stably transfected; membranes
Assay: Competitive radioligand binding assay (ghrelin receptor), [125I]-ghrelin, GHS-R/HEK 293 membranes
Details: competition with [125I]-ghrelin
Method: The competitive binding assay at the human growth hormone secretagogue receptor (HGHS-R1a) was carried out analogously to assays described in the literature. (Bednarek M A et al. Structure-function studies on the new growth hormone-releasing peptide ghrelin: minimal sequence of ghrelin necessary for activation of growth hormone secretagogue receptor 1a; J. Med. Chem. 2000, 43, 4370-4376; Palucki, B. L. et al. Spiro(indoline-3,4′-piperidine) growth hormone secretagogues as ghrelin mimetics; Bioorg. Med. Chem. Lett. […], 11, 1955-1957).
Membranes (GHS-R/HEK 293) were prepared from HEK-293 cells stably transfected with the human ghrelin receptor (hGHS-R1a). These membranes were provided by PerkinElmer BioSignal (#RBHGHSM, lot#1887) and utilized at a quantity of 0.71 μg/assay point. • 1. [^125]-Ghrelin (PerkinElmer, #NEX-388); final concentration: 0.0070-0.0085 nM • 2. […] Multiscreen Harvest plates-GF/C (Millipore, #MAHFC1H60) • 4. Deep-well polypropylene titer plate (Beckman Coulter, #267006) • 5. TopSeal-A (PerkinElmer, #6005185) • 6. Bottom seal (Millipore, #MATAH0P00) • 7. MicroScint-0 (PerkinElmer, #6013611) • 8. Binding Buffer: 25 mM Hepes (pH 7.4), 1 mM CaCl2, 5 mM MgCl2, 2.5 mM EDTA, 0.4% BSA
Competition experiments were performed in a 300 μl filtration assay format. • 1. 220 μL of membranes diluted in binding buffer • 2. 40 μL of compound diluted in binding buffer • 3.
Compounds were provided frozen on dry ice at a stock concentration of 10 mM diluted in 100% DMSO and stored at −80° C. until the day of testing. On the test day, compounds were allowed to thaw at rt overnight and then diluted in assay buffer according to the desired test concentrations. Under these conditions, the maximal final DMSO concentration in the assay was 0.1%.
In deep-well plates, 220 μL of diluted cell membranes (final concentration: 0.71 μg/well) were combined with 40 μL of either binding buffer (total binding, N=5), 1 μM ghrelin (non-specific binding, N=3) or the appropriate concentration of test compound N=2 for each test concentration). […] Plates were sealed with TopSeal-A, vortexed gently and incubated at rt for 30 min. The reaction was arrested by filtering samples through Multiscreen Harvest plates (pre-soaked in 0.5% polyethyleneimine) using a Tomtec Harvester, washed 9 times with 500 μL of cold 50 mM Tris-HCl (pH 7.4, 4° C.), and then plates were air-dried in a fumehood for 30 min. A bottom seal was applied to the plates prior to the addition of 25 μL of MicroScint-0 to each well. Plates were than sealed with TopSeal-A and counted for 30 sec per well on a TopCount Microplate Scintillation and Luminescence Counter (PerkinElmer) using a count delay of 60 sec. Results were expressed as counts per minute (cpm).
Data were analyzed by GraphPad Prism (GraphPad Software, San Diego, Calif.) using a variable slope non-linear regression analysis.
Dmax values were calculated using the following formula: […]
where total and non-specific binding represent the cpm obtained in the absence or presence of 1 μM ghrelin, respectively.

T1 sequence (Q92847 whole entry): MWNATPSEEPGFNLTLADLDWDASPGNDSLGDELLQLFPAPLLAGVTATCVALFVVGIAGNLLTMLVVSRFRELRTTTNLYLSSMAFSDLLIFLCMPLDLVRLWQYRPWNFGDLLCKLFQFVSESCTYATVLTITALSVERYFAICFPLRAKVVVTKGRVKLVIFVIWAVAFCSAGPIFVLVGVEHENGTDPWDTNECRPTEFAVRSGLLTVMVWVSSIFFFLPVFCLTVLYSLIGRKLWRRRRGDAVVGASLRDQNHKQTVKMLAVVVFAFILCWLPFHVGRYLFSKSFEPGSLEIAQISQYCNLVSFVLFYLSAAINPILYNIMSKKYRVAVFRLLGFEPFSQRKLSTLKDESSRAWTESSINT

pKi: 7.00 to 9.00
Structure (SMILES): CCC(C)[C@@H]1NCCOc2ccccc2/C=C/CNC(=O)[C@@H](Cc2ccccc2)NC(=O)[C@H](C(C)O)N(C)C1=O (stereo partly shown) [Compound 502]
